Ends that are not written are not given here.
Experiments:
c-Fos and NFATc1 = experiment: Western blotting, c-Fos and NFATc1; type: cell-based, C57BL/6J mice; settings: BMMs, RANKL and M-CSF, 3 days
Method: (§1) RIPA lysate (50 × protease inhibitor, 50 × phosphatase inhibitor) was used to extract total protein from the cells. Then, 20 μg protein or protein marker per lane (PageRuler ™ (ThermoFisher Scientific, Waltham, MA, USA) Prestained Protein Ladder 10kD-180KD or HiMark™ (ThermoFisher Scientific, Waltham, MA, USA) Pre-stained Protein Standard 31 kd-460 kd) was loaded onto an SDS gel (30% Acrylamide, 1.5 M Tris-HCl, 10% SDS, 10% Ammonium persulfate and TEMED) and subjected to electrophoresis and transferred to a polyvinylidene fluoride membrane. The membrane was blocked with 5% BSA for 4 h and incubated with the specific primary antibody overnight at 4 °C. Then, the membrane was incubated with a secondary antibody (IRDye) for 1 h at room temperature. Bio-Rad ChemiDoc MP imaging system (Bio-Rad Laboratories, Hercules, CA, USA) was used to visualize protein bands and ImageJ software was used to calculate relative protein expression based on grayscale blots.
(§2) Antibodies including p-AKT (Ser473; #4060), AKT (#4691), LC3A/B Antibody (#4108), p-mTOR (Ser2448; #5536), mTOR (#2983), c-Fos (#2250), NFATc1 (#8032), p-PI3K (#4228), PI3K (#4249), and GAPDH (#5174) were purchased from Cell Signalling Technology (Denver, MA, USA).

PI3K/AKT/mTOR pathway = experiment: Western blotting, PI3K/AKT/mTOR phosphorylation; type: cell-based, C57BL/6J mice; settings: BMMs, RANKL and M-CSF, acacetin 25 μM, 6 h, n = 3
Method: as §1, §2

OVX mice = experiment: OVX mouse model of osteoporosis; type: in vivo, C57BL/6J mice; settings: for anti-osteoporotic effects (OVX-induced bone loss; BMD and BV/TV, micro-CT of tibia): i.p. 5 mg/kg/3 day for 5 weeks
[1] = tested on: mRNA expression of TRAP, NFATc1, and CTSK; experiment: RT-PCR of osteoclast genes; type: cell-based, C57BL/6J mice; settings: BMMs, RANKL and M-CSF, 12.5, 25 μM, 3 days, n = 3
Method: The total RNA was extracted from cells or tissues using TRIzol reagent (Thermo Fisher Scientific, Waltham, MA, USA) according to the manufacturer’s instructions. PrimeScript^TM RT Master Mix (RR036Q, Takara, San Jose, CA, USA) was used to reverse transcribe 1 μg of total RNA extracted into complementary DNA (cDNA) for subsequent RT-PCR reactions using qTOWER real-time PCR thermal cycler (Analytik Jena, Jena, Germany).

[2] = Hydroxyapatite (HA) binding assay; settings: 800 μM, 4 mM sodium phosphate, 150 mM sodium chloride, pH 7.4, 15 mg HA, 37 °C, 0-80 min, HPLC
Method: Acacetin-EMCH-D6 and acacetin were dissolved, respectively, in a buffer containing 4 mM sodium phosphate and 150 mM sodium chloride (pH = 7.4), to a final concentration of 800 μM; 15 mg of HA was added and incubated in a 37 °C water bath; 20 μL aliquots were taken after 0, 10, 20, 40, and 80 min and quantified by HPLC.

BMMs = experiment: Cytotoxicity assay (CCK-8); type: cell-based, C57BL/6J mice; settings: 48 h and 96 h, CCK-8, n = 6
Method: In brief, the hind limbs of C57BL/6J mice were used to isolate bone marrow cells and cultured in α-MEM containing 10% FBS and 1% penicillin-streptomycin for one day to generate BMMs as described previously; 25 ng/mL […] Systems, Minneapolis, MN, USA) and 50 ng/mL […] Systems, Minneapolis, MN, USA) were used for the preparation of osteoclasts. […] The medium was changed every 2 days. After 48 h and 96 h of culture, CCK8 reagent (10 μL/well, Dojindo, Kumamoto, Japan) was added to each well. Then, the cells were incubated in darkness at 37 °C for 2 h. The absorbance was recorded using a microplate reader (Thermo Fisher Scientific, Waltham, MA, USA) at 450 nm.

[3] = tested on: ovariectomized (OVX) mice; settings: 20 mg/kg/day for 8 weeks; ref 11 (Lin et al.); cited from earlier work
Text: (§3) Osteoporosis following the estrogen withdrawal of menopause is a serious global clinical problem with a significant increase in the risk of fractures. Supplementation of estrogen is not recommended for the long-term treatment of postmenopausal bone loss because of the increased risk of breast cancers and cardiovascular events. Pure compounds isolated from natural products are emerging as potential therapeutics for postmenopausal osteoporosis. Acacetin is a di-hydroxy and mono-methoxy flavone widely distributed in various plants including the Acacia tree, black locust, and ...

[4] = plasma, after intravenous administration; cited from earlier work
Text: as §3

LC3II = experiment: Western blotting, LC3II (autophagy); type: cell-based, C57BL/6J mice; settings: BMMs, RANKL and M-CSF, 6 h
Method: as §1, §2

[5] = tested on: BMMs stimulated with RANKL and M-CSF; experiment: TRAP staining, osteoclast differentiation; type: cell-based, C57BL/6J mice; settings: 7 days
Method: In brief, the hind limbs of C57BL/6J mice were used to isolate bone marrow cells and cultured in α-MEM containing 10% FBS and 1% penicillin-streptomycin for one day to generate BMMs as described previously; 25 ng/mL […] Systems, Minneapolis, MN, USA) and 50 ng/mL […] Systems, Minneapolis, MN, USA) were used for the preparation of osteoclasts. […] TRAP-positive multinucleated osteoclasts (≥3 nuclei) were counted using a TRAP kit (Zhejiang Zhuoteng Biological, Shaoxing, China) according to the manufacturer's instructions. BMMs were induced by RANKL (50 ng/mL) and M-CSF (25 ng/mL) in the presence of acacetin (25 μM) and rapamycin (50 nmol/L) for 7 days. TRAP-positive multinucleated osteoclasts (≥3 nuclei) were counted.

[6] = tested on: BMMs stimulated with RANKL and M-CSF; experiment: Bone resorption assay (Osteo Assay Surface plate); type: cell-based, C57BL/6J mice
Method: In brief, the hind limbs of C57BL/6J mice were used to isolate bone marrow cells and cultured in α-MEM containing 10% FBS and 1% penicillin-streptomycin for one day to generate BMMs as described previously; 25 ng/mL M-CSF (416-ML-010/CF, R&D Systems, Minneapolis, MN, USA) and 50 ng/mL RANKL (462-TR-010/CF, R&D Systems, Minneapolis, MN, USA) were used for the preparation of osteoclasts.
Assays for bone resorption were performed using Corning Osteo Assay Surface plate (Sigma-Aldrich, Hongkong, China). We analyzed bone resorption pits with a light microscope and quantified pits area using Image J software (NIH, Bethesda, MD, USA).

[7] = statement of the design section, reference not given; cited from earlier work
Text: The next step is the identification of bone-targeting peptides. Bone tissue, as a special connective tissue, consists of a variety of cells and intercellular bone matrix, with high inorganic salt content which is mainly composed of HA. In recent years, more and more peptide sequences with excellent bone-targeting ability have been discovered. Compared with bone-targeting small molecules, these peptides have more specific mechanisms, high affinity and low side effects. Considering that acacetin has an excellent inhibitory effect on osteoclasts, we selected […] ...

[8] = i.p. 17.5 μmol/kg every 3 days for 5 weeks
[9] = i.p. 17.5 μmol/kg every 3 days for 5 weeks, n = 6
[10] = acacetin 25 μM and rapamycin 50 nmol/L
[11] = Acacetin-EMCH-D6 17.5 μmol/kg and rapamycin 1 mg/kg i.p. every 3 days, 5 weeks, at least in part
[12] = Acacetin-EMCH-D6 17.5 μmol/kg and rapamycin 1 mg/kg i.p. every 3 days, 5 weeks, proximal tibia

COc1ccc(-c2cc(=O)c3c(O)cc(O)cc3o2)cc1 [acacetin]
protein expression of NFATc1 (c-Fos and NFATc1; acacetin 25 μM): downregulated
protein expression of c-Fos (c-Fos and NFATc1; acacetin 25 μM): downregulated
RANKL+M-CSF-induced reduction of AKT phosphorylation (PI3K/AKT/mTOR pathway): reversed
RANKL+M-CSF-induced reduction of PI3K phosphorylation (PI3K/AKT/mTOR pathway): reversed
RANKL+M-CSF-induced reduction of mTOR phosphorylation (PI3K/AKT/mTOR pathway): reversed
BMD, proximal tibia and L5 vertebra (micro-CT), OVX-induced change (OVX mice; [8]): no significant effect
BV/TV, proximal tibia and L5 vertebra (micro-CT), OVX-induced change (OVX mice; [8]): no significant effect
Tb.N, proximal tibia and L5 vertebra (micro-CT), OVX-induced change (OVX mice; [8]): no significant effect
Tb.Sp, proximal tibia and L5 vertebra (micro-CT), OVX-induced change (OVX mice; [8]): no significant effect
number of TRAP-positive cells, proximal tibia (OVX-induced increase) (OVX mice; [8]): did not affect the histological changes
plasma CTX-1 levels (OVX mice; [9]): no significant effect
trabecular density and thickness, proximal tibia (H&E staining) (OVX mice; [9]): did not affect the histological changes
anti-osteoporotic effects (OVX-induced bone loss; BMD and BV/TV, micro-CT of tibia) (OVX mice; n = 6, Figure S1, 5 mg/kg): did not observe its anti-osteoporotic effects
anti-osteoporotic effects (OVX-induced bone loss; BMD and BV/TV, micro-CT of tibia) (OVX mice; n = 6, Figure S1, listed as Acacetin, 5 mg/kg): no effect on OVX-induced bone loss
mRNA expression of CTSK [1]: suppressed
mRNA expression of NFATc1 [1]: suppressed
mRNA expression of TRAP [1]: suppressed
binding to hydroxyapatite (HA) [2]: very weak binding
cell viability (BMMs; dose more than 50 μM): reduced cell viability
cell viability (BMMs; dose of 6.25, 12.5, and 25 μM): did not affect cell viability
bone loss in ovariectomized (OVX) mice [3]: protected against bone loss
terminal half-life [4]: 1.48 h
RANKL+M-CSF-induced increase of LC3II protein levels (LC3II; acacetin 25 μM, n = 3): reversed
number of TRAP-positive osteoclasts (nuclei ≥ 3) ([5]; RANKL 50 ng/mL and M-CSF 25 ng/mL, 12.5, 25 μM, n = 3): significantly diminished
area of bone resorption pits ([6]; RANKL 50 ng/mL and M-CSF 25 ng/mL, 12.5, 25 μM added for 3 days after immature osteoclasts formed, n = 3): significantly diminished

CO[C@H]1C[C@@H]2CC[C@@H](C)[C@@](O)(O2)C(=O)C(=O)N2CCCC[C@H]2C(=O)O[C@H]([C@H](C)C[C@@H]2CC[C@@H](O)[C@H](OC)C2)CC(=O)[C@H](C)/C=C(\C)[C@@H](O)[C@@H](OC)C(=O)[C@H](C)C[C@H](C)/C=C/C=C/C=C/1C [rapamycin]
effect of rapamycin co-treatment on downregulation of NFATc1 protein by acacetin (c-Fos and NFATc1; [10]): partially reversed
effect of rapamycin co-treatment on downregulation of c-Fos protein by acacetin (c-Fos and NFATc1; [10]): partially reversed
effect of rapamycin co-treatment on BMD augmentation by Acacetin-EMCH-D6 (OVX mice; [11]): reversed
effect of rapamycin co-treatment on BV/TV augmentation by Acacetin-EMCH-D6 (OVX mice; [11]): reversed
effect of rapamycin co-treatment on Tb.N augmentation by Acacetin-EMCH-D6 (OVX mice; [11]): reversed
effect of rapamycin co-treatment on Tb.Sp reduction by Acacetin-EMCH-D6 (OVX mice; [11]): reversed
effect of rapamycin co-treatment on reduction of LC3 dots by Acacetin-EMCH-D6 (OVX mice; [12]): partly reversed
effect of rapamycin co-treatment on reduction of TRAP-positive osteoclasts by Acacetin-EMCH-D6 (OVX mice; [12]): partly reversed
effect of rapamycin co-treatment on inhibition of LC3II protein levels by acacetin (LC3II; [10]): abolished
effect of rapamycin co-treatment on inhibition of osteoclast differentiation by acacetin (TRAP assay) ([5]; RANKL and M-CSF, acacetin 25 μM and rapamycin 50 nmol/L): partly reversed
effect of rapamycin co-treatment on inhibition of bone resorption by acacetin ([6]; RANKL and M-CSF, acacetin 25 μM and rapamycin 50 nmol/L, 3 days): partly reversed

DDDDDD [D6, medium-length polyaspartic acid, bone targeting peptide]
HA affinity [7]: comparable to tetracycline and calcein

From article PMC9867347, “An Acid-Sensitive Bone Targeting Delivery System Carrying Acacetin Prevents Osteoporosis in Ovariectomized Mice” (Pharmaceuticals, 2022)
